Drawing on BindingDB's records for doi:10.1016/j.bmcl.2004.01.051 (Pierre and Marie Curie University, 2004), this text covers Ki for 8 compounds.

Molecules are shown by their SMILES.

In the first assay the target is Cyclopropane-fatty-acyl-phospholipid synthase (Escherichia coli) (UniProt P0A9H7). Put plainly: Inhibition constant against Escherichia coli cyclopropane fatty acid synthase.
Sequence of Cyclopropane-fatty-acyl-phospholipid synthase (Escherichia coli) (P0A9H7 whole entry, looked up): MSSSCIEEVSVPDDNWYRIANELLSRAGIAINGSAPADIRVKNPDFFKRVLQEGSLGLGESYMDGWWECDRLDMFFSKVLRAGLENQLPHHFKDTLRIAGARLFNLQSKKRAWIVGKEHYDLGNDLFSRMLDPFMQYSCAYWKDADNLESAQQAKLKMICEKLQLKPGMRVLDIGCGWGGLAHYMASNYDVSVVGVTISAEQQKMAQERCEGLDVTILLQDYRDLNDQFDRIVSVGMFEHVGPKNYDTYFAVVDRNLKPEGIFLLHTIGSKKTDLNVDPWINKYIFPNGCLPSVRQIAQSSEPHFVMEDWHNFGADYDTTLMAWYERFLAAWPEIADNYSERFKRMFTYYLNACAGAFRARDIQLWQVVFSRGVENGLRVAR
Regarding `Nc1ncnc2c1ncn2[C@@H]1O[C@H](CSCCC(N)C(=O)O)[C@@H](O)[C@H]1O` (stereo partly drawn) [2-Amino-4-[(2S,3S,4R,5R)-5-(6-amino-purin-9-yl)-3,4-dihydroxy-tetrahydro-furan-2-ylmethylsulfanyl]-butyric acid], the Ki – broadly, the equilibrium dissociation constant of an inhibitor or competing ligand from its target – was 30 µM. In other words, the double-digit micromolar range. With `Nc1ncnc2c1ncn2[C@@H]1O[C@H](C[S+]([O-])CC[C@H](N)C(=O)O)[C@@H](O)[C@H]1O` (stereo partly drawn) [2-Amino-4-[(2S,3S,4R,5R)-5-(6-amino-purin-9-yl)-3,4-dihydroxy-tetrahydro-furan-2-ylmethanesulfinyl]-butyric acid], the Ki came to 50 µM. On the same count and under the same terms, for `CSC[C@H]1O[C@@H](n2cnc3c(N)ncnc32)[C@H](O)[C@@H]1O` [(2R,3R,4S,5S)-2-(6-aminopurin-9-yl)-5-(methylsulfanylmethyl)oxolane-3,4-diol] the value was 1500 µM. The same measure, in the same setting: for `Nc1ncnc2c1ncn2[C@@H]1O[C@H](CSCC[C@H](N)C(=O)O)[C@@H](O)[C@H]1O` [AdoHcy] the value was 150 µM; for `CS(=O)(=O)C[C@H]1O[C@@H](n2cnc3c(N)ncnc32)[C@H](O)[C@@H]1O` [(2R,3R,4S,5S)-2-(6-Amino-purin-9-yl)-5-methanesulfonylmethyl-tetrahydro-furan-3,4-diol], 220 µM; for `C[S+]([O-])C[C@H]1O[C@@H](n2cnc3c(N)ncnc32)[C@H](O)[C@@H]1O` (stereo partly drawn) [(2R,3R,4S,5S)-2-(6-Amino-purin-9-yl)-5-methanesulfinylmethyl-tetrahydro-furan-3,4-diol], 500 µM. On the same count and under the same terms, the same measure for `Nc1ncnc2c1ncn2[C@@H]1O[C@H](CS(=O)(=O)CC[C@H](N)C(=O)O)[C@@H](O)[C@H]1O` [2-Amino-4-[(2S,3S,4R,5R)-5-(6-amino-purin-9-yl)-3,4-dihydroxy-tetrahydro-furan-2-ylmethanesulfonyl]-butyric acid]: 100 µM. Compound `C[S+](C)C[C@H]1O[C@@H](n2cnc3c(N)ncnc32)[C@H](O)[C@@H]1O` yielded an inhibition constant Ki of 2500 µM.

For the next assay the target is unchanged. The assay is described as above. The source holds these as a separate data set.
On to `Nc1ncnc2c1ncn2[C@@H]1O[C@H](C[S+]([O-])CC[C@H](N)C(=O)O)[C@@H](O)[C@H]1O` (stereo partly drawn) [2-Amino-4-[(2S,3S,4R,5R)-5-(6-amino-purin-9-yl)-3,4-dihydroxy-tetrahydro-furan-2-ylmethanesulfinyl]-butyric acid], for which the affinity corresponds to a Ki of 30 µM.
